The values below come from patent US20070197512A1, “Carboxylic Acid Compounds and Use Thereof” (Japan Tobacco Inc., priority 2006, published 2007).

Each structure is given as a SMILES string.

The IC50 is the concentration that gives 50% inhibition.

The target in one experiment is T1, human URAT1 (Homo sapiens, UniProt Q96S37).
T1 construct: Human URAT1 full length cDNA was subcloned to expression vector pcDNA3.1; expressed in transfected cells; host or cells: HEK293 cells (pcDNA3.1, geneticin-selected)
T1 sequence (Q96S37 1-553): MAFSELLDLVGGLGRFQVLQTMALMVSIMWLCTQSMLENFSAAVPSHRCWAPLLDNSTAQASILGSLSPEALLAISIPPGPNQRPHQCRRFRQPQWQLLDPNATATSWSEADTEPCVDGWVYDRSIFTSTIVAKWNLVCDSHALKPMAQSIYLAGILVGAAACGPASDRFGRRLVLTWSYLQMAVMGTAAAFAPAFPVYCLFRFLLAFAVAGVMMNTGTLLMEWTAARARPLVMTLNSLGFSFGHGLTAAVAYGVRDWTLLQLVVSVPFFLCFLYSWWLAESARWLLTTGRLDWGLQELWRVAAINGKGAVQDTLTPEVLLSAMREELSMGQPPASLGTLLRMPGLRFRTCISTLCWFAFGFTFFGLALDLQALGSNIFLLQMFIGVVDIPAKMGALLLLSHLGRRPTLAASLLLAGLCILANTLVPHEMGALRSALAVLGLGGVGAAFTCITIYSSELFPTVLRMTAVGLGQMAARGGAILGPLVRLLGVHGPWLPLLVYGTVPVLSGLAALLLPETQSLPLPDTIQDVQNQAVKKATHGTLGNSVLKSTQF
The experiment is described as follows: Uric acid transport inhibitory test using human URAT1-expressing cells. It counts as cell-based. Particulars: human URAT1-expressing HEK293 cells, 14C-uric acid 50 μM, uptake 5 min, room temperature; read-out: hURAT1 IC50. A digest of the protocol:
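HEK293 cells stably transfected with full-length human URAT1; mock-transfected HEK293 served as background. Uptake of 14C-uric acid (50 μM final) over 5 min at room temperature in Na-gluconate-substituted HBSS with compound, read by scintillation. IC50 derived from URAT1-specific transport (URAT1 minus mock, DMSO = 100%).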

Another experiment addresses T2, CYP2C9 (Homo sapiens, UniProt P11712).
T2 construct: Human liver microsome (20 mg protein/mL, 5 μL, Xenotech LLC, purchased from Lenexa Kans.); tissue Xenotech LLC; host or cells: human liver microsomes
As to the kind of experiment: CYP inhibitory test using human liver microsome. Particulars: model substrate diclofenac, 37° C., 10 min, read-out: CYP2C9 inhibition, IC50. The format is in vitro ADME. The procedure:
Experimental Example 2 CYP Inhibitory Test Using Human Liver Microsome
Human liver microsome (20 mg protein/mL, 5 μL, Xenotech LLC, purchased from Lenexa Kans.) was suspended in 100 mM potassium phosphate buffer (70 μL, pH 7.4), mixed with a solution (0.5 μL) of the Example compound dissolved in DMSO and preincubated at 37° C. for 5 min. NADPH producing system coenzyme solution (β-nicotinamide adenine dinucleotide phosphate: 5.2 mM, D-glucose-6-phosphate: 13.2 mM, magnesium chloride: 13.2 mM, glucose-6-phosphate dehydrogenase: 1.8 U/mL) 25 μL, and a model substrate (CYP3A4: midazolam 1 mM, CYP2D6: bufuralol 1 mM, CYP2C9: diclofenac 2 mM) 0.5 μL dissolved in DMSO were added to start the reaction. After incubation at 37° C. for 10 min., acetonitrile (200 μL) containing an internal standard substance (propranolol 1 μM) was added and the mixture was centrifuged (room temperature, 3000 rpm, 20 min). The amount of the metabolite produced from each model substrate in the supernatant was measured by high performance liquid chromatography/mass spectrometry (LC/MS/MS) and each CYP enzyme activity was determined. The concentration showing 50% inhibition (IC50) was calculated relative to the enzyme activity without addition of Example compound (DMSO 0.5 μL added) as 100%.
As a comparative example, the CYP enzyme activity of the compound described in JP-A-3-135917 was examined by determining the IC50 value in the same manner as above.
For orientation: Microsomes from liver hold many membrane-bound enzymes, among them those of drug oxidation.

T2 sequence (P11712 whole entry): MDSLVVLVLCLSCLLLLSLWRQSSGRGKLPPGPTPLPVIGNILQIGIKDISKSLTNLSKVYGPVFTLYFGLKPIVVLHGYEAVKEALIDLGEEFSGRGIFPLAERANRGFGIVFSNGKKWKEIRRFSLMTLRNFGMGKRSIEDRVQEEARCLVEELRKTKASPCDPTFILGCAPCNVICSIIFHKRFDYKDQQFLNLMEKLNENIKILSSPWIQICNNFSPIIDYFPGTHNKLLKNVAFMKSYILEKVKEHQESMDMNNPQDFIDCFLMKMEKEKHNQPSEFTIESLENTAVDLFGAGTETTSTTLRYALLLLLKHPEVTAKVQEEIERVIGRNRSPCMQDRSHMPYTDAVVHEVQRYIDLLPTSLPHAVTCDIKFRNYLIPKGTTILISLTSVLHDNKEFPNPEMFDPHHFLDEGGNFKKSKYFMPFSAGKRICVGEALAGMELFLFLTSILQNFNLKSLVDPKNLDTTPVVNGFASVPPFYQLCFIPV

Turning to `Cc1cccc2c1OC(c1ccccc1)CN2C(=O)/C=C/C(=O)O` (stereo not shown) [Example 55, (E)-4-(8-methyl-2-phenyl-2,3-dihydrobenzo[1,4]oxazin-4-yl)-4-oxo-2-butenoic acid], the concentration for half-maximal inhibition (IC50) on human URAT1 is at least 3 µM; at CYP2C9, over 50 µM.
As to `CC[C@H](C)[C@H]1Oc2c(C)cc(C)cc2N(CCC(=O)O)C1=O` [Example 105, 3-[(R)-2-((S)-sec-butyl)-6,8-dimethyl-3-oxo-2,3-dihydrobenzo[1,4]oxazin-4-yl]propionic acid], the half-inhibitory concentration (IC50) at human URAT1 was under 0.3 µM; on CYP2C9, over 50 µM.
For `Cc1cc(Cl)cc2c1O[C@@H](C(C)C)C(=O)N2CCC(=O)O` [Example 110, 3-((S)-6-chloro-2-isopropyl-8-methyl-3-oxo-2,3-dihydrobenzo[1,4]oxazin-4-yl)propionic acid] the same measures were 0.3 to 3 µM and over 50 µM.
For `Cc1cc(Cl)cc2c1OC(C(C)C)CN2C(=O)/C=C/C(=O)O` (stereo not shown) [Example 83, (E)-4-(6-chloro-2-isopropyl-8-methyl-2,3-dihydrobenzo[1,4]oxazin-4-yl)-4-oxo-2-butenoic acid] the same measures were 0.3 to 3 µM and over 50 µM.
For `Cc1ccc2c(c1)OC(C(C)C)CN2C(=O)/C=C/C(=O)O` (stereo not shown) [Example 56, (E)-4-(2-isopropyl-7-methyl-2,3-dihydrobenzo[1,4]oxazin-4-yl)-4-oxo-2-butenoic acid] the same measures were at least 3 µM and over 50 µM.
Take `CC(C)[C@H]1Oc2c(Cl)cc(Cl)cc2N(CCC(=O)O)C1=O` [Example 108, 3-((R)-6,8-dichloro-2-isopropyl-3-oxo-2,3-dihydrobenzo[1,4]oxazin-4-yl)propionic acid]: the figures for the half-inhibitory concentration (IC50) on human URAT1 and at CYP2C9 were under 0.3 µM and over 50 µM, respectively.
For `Cc1cc(Cl)c2c(c1)N(CCC(=O)O)C(=O)[C@@H](C(C)C)O2` [Example 106, 3-((R)-8-chloro-2-isopropyl-6-methyl-3-oxo-2,3-dihydrobenzo[1,4]oxazin-4-yl)propionic acid] the same measures were under 0.3 µM and over 50 µM.
For `Cc1cc(Cl)cc2c1OC(c1ccccc1)CN2C(=O)/C=C/C(=O)O` (stereo not shown) [Example 84, (E)-4-(6-chloro-8-methyl-2-phenyl-2,3-dihydrobenzo[1,4]oxazin-4-yl)-4-oxo-2-butenoic acid] the same measures were 0.3 to 3 µM and over 50 µM.
`CC(C)c1cccc2c1OC(C(C)C)CN2C(=O)/C=C\C(=O)O` (stereo not shown) [Example 37, (Z)-4-(2,8-diisopropyl-2,3-dihydrobenzo[1,4]oxazin-4-yl)-4-oxo-2-butenoic acid]: the values for the IC50 at human URAT1 and at CYP2C9 were 0.3 to 3 µM and over 50 µM, respectively.
For `CCCC1Oc2c(C)cc(C)cc2N(CCC(=O)O)C1=O` (stereo not shown) [Example 102, 3-(6,8-dimethyl-3-oxo-2-propyl-2,3-dihydrobenzo[1,4]oxazin-4-yl)propionic acid] the same measures were under 0.3 µM and over 50 µM.
For `Cc1cc(C)c2c(c1)N(CCC(=O)O)C(=O)[C@@H](CC(C)C)O2` [Example 91, 3-((R)-2-isobutyl-6,8-dimethyl-3-oxo-2,3-dihydrobenzo[1,4]oxazin-4-yl)propionic acid] the same measures were under 0.3 µM and over 50 µM.
For `CC(C)c1cccc2c1OC(C(C)C)CN2C(=O)/C=C/C(=O)O` (stereo not shown) [Example 36, (E)-4-(2,8-diisopropyl-2,3-dihydrobenzo[1,4]oxazin-4-yl)-4-oxo-2-butenoic acid] the same measures were 0.3 to 3 µM and over 50 µM.
`CC(C)[C@@H]1Oc2c(Cl)cc(Cl)cc2N(CCC(=O)O)C1=O` [Example 111, 3-((S)-6,8-dichloro-2-isopropyl-3-oxo-2,3-dihydrobenzo[1,4]oxazin-4-yl)propionic acid]: the IC50 at human URAT1 was 0.3 to 3 µM; on CYP2C9 it was over 50 µM.
The like results for `CC(C)c1cccc2c1OC(c1ccccc1)C(=O)N2CCC(=O)O` (stereo not shown) [Example 38, 3-(8-isopropyl-3-oxo-2-phenyl-2,3-dihydrobenzo[1,4]oxazin-4-yl)propionic acid] were, in that order, under 0.3 µM and over 50 µM.
For the molecule `Cc1ccc2c(c1)N(C(=O)/C=C/C(=O)O)CC(c1ccccc1)O2` (stereo not shown) [Example 65, (E)-4-(6-methyl-2-phenyl-2,3-dihydrobenzo[1,4]oxazin-4-yl)-4-oxo-2-butenoic acid], the IC50 at human URAT1 was at least 3 µM; at CYP2C9, over 50 µM.
The like results for `CC(C)c1cccc2c1OC(C(C)C)C(=O)N2CCC(=O)O` (stereo not shown) [Example 14, 3-(2,8-diisopropyl-3-oxo-2,3-dihydrobenzo[1,4]oxazin-4-yl)propionic acid] were, in that order, 0.3 to 3 µM and over 50 µM.
Turning to `CC(C)c1cccc2c1OC(C(C)C)C(=S)N2CCC(=O)O` (stereo not shown) [Example 16, 3-(2,8-diisopropyl-3-thioxo-2,3-dihydrobenzo[1,4]oxazin-4-yl)propionic acid], the IC50 is 0.3 to 3 µM on human URAT1 and over 50 µM at CYP2C9.
For `Cc1cccc2c1OC(C(C)C)CN2C(=O)/C=C/C(=O)O` (stereo not shown) [Example 54, (E)-4-(2-isopropyl-8-methyl-2,3-dihydrobenzo[1,4]oxazin-4-yl)-4-oxo-2-butenoic acid] the same measures were at least 3 µM and over 50 µM.
For the molecule `Cc1cc(C)c2c(c1)N(CCC(=O)O)C(=O)[C@H](C(C)C)O2` [Example 73, 3-((S)-2-isopropyl-6,8-dimethyl-3-oxo-2,3-dihydrobenzo[1,4]oxazin-4-yl)propionic acid], the values for the IC50 at human URAT1 and on CYP2C9 were under 0.3 µM and over 50 µM, respectively.
Regarding `Cc1c(Cl)cc2c(c1Cl)OC(C(C)C)C(=O)N2CCC(=O)O` (stereo not shown) [Example 94, 3-(6,8-dichloro-2-isopropyl-7-methyl-3-oxo-2,3-dihydrobenzo[1,4]oxazin-4-yl)propionic acid], the IC50 is under 0.3 µM at human URAT1 and over 50 µM on CYP2C9.
